Assay results from US4505905A, “Cyclobutanone antibacterials” (E. I. Du Pont de Nemours and Company, priority 1982, dated 1985).
≈ marks a conversion by molar mass, not a printed value. Like-named read-outs stand apart in the source and are kept apart here.

Assays:
[1] = test system: penicillin-resistant Staphylococcus aureus strain; experiment: Antibacterial activity in combination with benzyl penicillin, modified microdilution technique; settings: Table 4; for Effective Combination Concentrations: Units/mL Benzyl Penicillin: concentration of benzyl penicillin combined with the compound; for Effective Combination Concentrations: μg/mL Compound: concentration of compound in combination with benzyl penicillin
[2] = test system: penicillin-resistant Staphylococcus aureus strain; experiment: Intrinsic antibacterial activity, microdilution method (MIC, compound alone); settings: for MIC: Staphylococcus aureus
[3] = biological target: Pencillinase Type I (a β-lactamase from Bacillus cereus) (Bacillus cereus, UniProt P00809); experiment: Inhibition of the hydrolysis of penicillin G by Pencillinase Type I; format: biochemical; settings: penicillin G 0.6 mg/mL; enzyme 2.8 μg/mL; inhibitor 75 μg/mL; read-out: percent inhibition of hydrolysis of penicillin G
[4] = test system: Bacillus cereus var. mycoides; format: cell-based, Bacillus cereus var. mycoides: ATCC 11778; settings: Table 6; for Effective Combination Concentrations: Units/mL Benzyl Penicillin: concentration of benzyl penicillin combined with the compound; for Effective Combination Concentrations: μg/mL Compound: concentration of compound in combination with benzyl penicillin
[5] = test system: Bacillus cereus var. mycoides; experiment: microbe, parasite or virus in culture; format: cell-based, Bacillus cereus var. mycoides: ATCC 11778; settings: for MIC: Bacillus cereus, read-out: MIC: μg/mL Compound Alone; for active against B. cereus var. mycoides: Table 6
[6] = test system: Penicillin Gresistant strain of Staphylococcus Aureus; experiment: Survival of mice infected with a Penicillin G resistant strain of Staphylococcus Aureus; format: in vivo
Procedure: ^3 In mice infected with a Penicillin Gresistant strain of
Staphylococcus Aureus, the orally administered combination of 32, at 125
mg/kg of body weight, and Penicillin G, at 80 mg/kg of body weight, […]

[7] = read-out: MIC: μg/mL Compound Alone

Sequence of Pencillinase Type I (a β-lactamase from Bacillus cereus) (P00809 28-306): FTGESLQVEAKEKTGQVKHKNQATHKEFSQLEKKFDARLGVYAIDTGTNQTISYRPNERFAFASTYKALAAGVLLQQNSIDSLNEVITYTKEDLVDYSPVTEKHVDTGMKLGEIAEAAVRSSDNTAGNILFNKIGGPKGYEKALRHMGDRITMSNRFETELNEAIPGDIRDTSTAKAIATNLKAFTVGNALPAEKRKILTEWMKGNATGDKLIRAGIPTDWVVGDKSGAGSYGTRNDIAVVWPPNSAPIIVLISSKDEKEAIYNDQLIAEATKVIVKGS

| Structure (SMILES) | Effective Combination Concentrations: Units/mL Benzyl Penicillin [1] | Effective Combination Concentrations: μg/mL Compound [1] | MIC [2, 7] | other results |
| --- | --- | --- | --- | --- |
| CC(=O)NCCSC1=C(C(=O)OC(c2ccccc2)c2ccccc2)C2C(=O)CC2C1 (stereo not drawn) [Compound 24, 3-(2'-Acetamidoethylthio)-7-oxobicyclo-[3.2.0]hept-2-en-2-carboxylic Acid, Diphenylmethyl Ester] | 20 Units/mL | 12.5 µg/mL | > 100 µg/mL | inhibition at 75 µg/mL [3]: 30 to 40% |
| O=C(OC(c1ccccc1)c1ccccc1)C1=C([S+]([O-])c2ccc([N+](=O)[O-])cc2)CC2CC(=O)C12 (stereo not drawn) [Compound 32, 3-(p-Nitrophenylsulfinyl)-7-oxobicyclo[3.2.0]hept-2-en-2-carboxylic Acid, Diphenylmethyl Ester] | 5.0 Units/mL | 6.3 µg/mL | 25 µg/mL (≈ 51.3 µM) | Effective Combination Concentrations: Units/mL Benzyl Penicillin ([1]; listed as 32*): 10 Units/mL; Effective Combination Concentrations: Units/mL Benzyl Penicillin [4]: 25 Units/mL; Effective Combination Concentrations: μg/mL Compound [4]: 1.5 µg/mL; MIC [5]: 6.3 µg/mL (≈ 12.9 µM); active against B. cereus var. mycoides [5]: active; survival rate ([6]; compound by itself at 500 mg/kg): 16.7%; survival ([6]; oral combination of 32 at 125 mg/kg and Penicillin G at 80 mg/kg): 83.3% |
| Cc1onc(-c2ccccc2Cl)c1C(=O)N[C@@H]1C(=O)N2[C@@H]1SC(C)(C)[C@@H]2C(=O)O [cloxacillin, reference compound] |  |  |  | inhibition at 75 µg/mL [3]: 10 to 15% |
| CC1(C)S[C@@H]2[C@H](NC(=O)Cc3ccccc3)C(=O)N2[C@H]1C(=O)O [benzyl penicillin, reference compound] |  |  |  | Minimum Inhibitory Concentration of Benzyl Penicillin ([2]; Table 4 footnote, alone): 100 units/mL; minimum inhibitory concentration (MIC) of benzyl penicillin ([2]; test isolate, benzyl penicillin alone): > 100 units per mL; Benzyl penicillin MIC ([5]; Table 6 footnote, alone): 100 units/mL; survival ([6]; Penicillin G by itself, 80 mg/kg): 33.3% |
| CC(=O)NCC[S+]([O-])C1=C(C(=O)OC(c2ccccc2)c2ccccc2)[C@H]2C(=O)[C@H]([C@H](C)O)[C@H]2C1 (relative stereo) [Compound 78, 3-(2-Acetamidoethylsulfinyl)-6-(1-hydroxyethyl)-7-oxobicyclo[3.2.0]hept-2-en-2-carboxylic Acid, Diphenylmethyl Ester] | 20 Units/mL | 12.5 µg/mL | 50 µg/mL (≈ 101 µM) |  |
| O=C(OC(c1ccccc1)c1ccccc1)C1=C(S(=O)(=O)c2ccc([N+](=O)[O-])cc2)CC2CC(=O)C12 (stereo not drawn) [Compound 73, 3-(p-Nitrophenylsulfonyl)-7-oxobicyclo[3.2.0]hept-2-en-2-carboxylic Acid, Diphenylmethyl Ester] | 1.25 Units/mL | 25 µg/mL | 50 µg/mL (≈ 99.3 µM) |  |
| COC1(OC)C2C(C(=O)OC(c3ccccc3)c3ccccc3)=C(S(=O)(=O)c3ccccc3)CC2C1C(C)O (stereo not drawn) [Compound 79, 3-Phenylsulfonyl-6-(1-hydroxyethyl)-7,7-dimethoxybicyclo[3.2.0]hept-2-en-2-carboxylic Acid, Diphenylmethyl Ester] | 20 Units/mL | 12.5 µg/mL | > 100 µg/mL |  |
| O=C(OC(c1ccccc1)c1ccccc1)C1=C([S+]([O-])CCNC(=O)C(c2ccccc2)c2ccccc2)CC2CC(=O)C12 (stereo not drawn) [Compound 64] | 20 Units/mL | 3.2 µg/mL | > 100 µg/mL |  |
| O=C(OC(c1ccccc1)c1ccccc1)C1=CCC2C1C(=O)C2(Cl)C(O)c1ccccc1 (stereo not drawn) [Compound 75, 6-Chloro-6-(α'-hydroxybenzyl)-7-oxobicyclo[3.2.0]hept-2-en-2-carboxylic Acid, Diphenylmethyl Ester] | 10 Units/mL | 6.3 µg/mL | > 100 µg/mL |  |
| O=C(OC(c1ccccc1)c1ccccc1)C1=C(S(=O)(=O)c2ccccc2)CC2CC(=O)C12 (stereo not drawn) [Compound 20, 3-Phenylsulfonyl-7-oxobicyclo[3.2.0]hept-2-en-2-carboxylic Acid, Diphenylmethyl Ester] |  |  |  | MIC ([2]; read-out: Microdilution MIC): 100 µg/mL (≈ 218 µM) |
| CC(=O)NCCSC1=C(C(=O)O)C2C(=O)CC2C1 (stereo not drawn) [Compound 25, 3-(2'-Acetamidoethylthio)-7-oxobicyclo[3.2.0]hept-2-en-2-carboxylic Acid] |  |  |  | inhibition at 75 µg/mL [3]: 10 to 15% |
| O=C(O)C1=C([S+]([O-])c2ccc([N+](=O)[O-])cc2)CC2CC(=O)C12 (stereo not drawn) [32+] | 20 Units/mL | 12.5 µg/mL | > 100 µg/mL |  |
| O=C(OC(c1ccccc1)c1ccccc1)C1=CCC2CC(=O)C12 (stereo not drawn) [Compound 13, 7-Oxobicyclo[3.2.0]hept-2-en-2-carboxylic Acid, Diphenylmethyl Ester] | 10 Units/mL | 12.5 µg/mL | > 100 µg/mL |  |
| CC(=O)NCC[S+]([O-])C1=C(C(=O)OCc2cccc3ccccc23)C2C(=O)CC2C1 (stereo not drawn) [Compound 29, 3-(2'-Acetamidoethylsulfinyl)-7-oxobicyclo[3.2.0]hept-2-en-2-carboxylic Acid, 1-Naphthylmethyl Ester] | 20 Units/mL | 25 µg/mL | 100 µg/mL (≈ 235 µM) |  |
| C[C@H](O)[C@H]1C(=O)[C@@H]2C(C(=O)OC(c3ccccc3)c3ccccc3)=C([S+]([O-])c3ccccc3)C[C@@H]21 (relative stereo) [Compound 35, 3-Phenylsulfinyl-6-(1-hydroxyethyl)-7-oxobicyclo[3.2.0]hept-2-en-2-carboxylic Acid, Diphenylmethyl Ester] | 10 Units/mL | 6.3 µg/mL | 50 µg/mL (≈ 103 µM) | Effective Combination Concentrations: Units/mL Benzyl Penicillin [4]: 25 Units/mL; Effective Combination Concentrations: μg/mL Compound [4]: 3.2 µg/mL; MIC [5]: 25 µg/mL (≈ 51.4 µM); active against B. cereus var. mycoides [5]: active |
| CC(=O)NCC[S+]([O-])C1=C(C(=O)OC(c2ccccc2)c2ccccc2)C2C(=O)CC2C1 (stereo not drawn) [Compound 26] |  |  |  | MIC ([2]; read-out: Microdilution MIC): 100 µg/mL (≈ 221 µM) |
| CC(=O)NCCSC1=C(C(=O)OCc2cccc3ccccc23)C2C(=O)CC2C1 (stereo not drawn) [Compound 28, 3-(2'-Acetamidoethylthio)-7-oxobicyclo[3.2.0]hept-2-en-2-carboxylic Acid, 1-Naphthylmethyl Ester] | 20 Units/mL | 25 µg/mL | > 100 µg/mL |  |
| CC(=O)NCCSC1=C(C(=O)OC(c2ccccc2)c2ccccc2)C2C(=O)[C@H]([C@H](C)O)[C@H]2C1 (relative stereo) [Compound 76, 3-(2-Acetamidoethylthio)-(1-hydroxyethyl)-7-oxobicyclo[3.2.0]hept-2-en-2-carboxylic Acid, Diphenylmethyl Ester] | 10 Units/mL | 50 µg/mL | > 100 µg/mL |  |
| O=C(OC(c1ccccc1)c1ccccc1)C1=C([S+]([O-])c2ccccc2)CC2CC(=O)C12 (stereo not drawn) [Compound 16, 3-Phenylsulfinyl-7-oxobicyclo[3.2.0]hept-2-en-2-carboxylic Acid, Diphenylmethyl Ester] |  |  |  | MIC ([2]; read-out: Microdilution MIC): 50 µg/mL (≈ 113 µM) |
